In brackets after ≈: the same amount, converted by molar mass. Like-named read-outs stand apart in the source and are kept apart here. Where a SMILES comes first, the peptide text is derived from it. [ ]: non-standard residue; d: D form. The star is where a group is joined. Dab = NCC[C@H](N)C(=O)O; Cbz = O=C(OCc1ccccc1)*
Experiments:
[1] = test system: K. pneumoniae FDA-CDC AR 0097; details: K. pneumoniae AR 0097
[2] = test system: Klebsiella pneumoniae ATCC 13883; format: cell-based; details: K. pneumoniae ATCC 13883; TSB
Protocol: (§3) The minimum inhibitory concentration (MIC) of paenipeptin analogues was determined using the broth microdilution method (Wirker, M. A. Methods for Dilution Antimicrobial Susceptibility Tests for Bacteria that Grow Aerobically: Approved Standard M07-A8; Clinical and Laboratory Standards Institute, Wayne, Pa., 2009). Seven reference strains (Acinetobacter baumannii ATCC 19606, Escherichia coli ATCC 25922, Klebsiella pneumoniae ATCC 13883, Pseudomonas aeruginosa ATCC 27853, Enterococcus faecium ATCC 19434, Staphylococcus aureus ATCC 29213 and methicillin-resistant S. aureus ATCC 43300) were subjected to MIC testing.
(§4) Paenipeptin analogues were two-fold diluted in tryptic soy broth (TSB; Becton Dickinson) and mixed with an equal volume of bacterial suspensions in TSB containing approximately 1.5×10^5 colony-forming units (CFU)/mL in a clear UV-sterilized 96-well microtiter plate (NBS, Corning Inc., Corning, N.Y.). […] The microtiter plate was incubated at 37° C. for 18-20 h.

[3] = test system: A. baumannii FDA-CDC AR 0083; details: A. baumannii AR 0083
[4] = test system: Acinetobacter baumannii ATCC 19606; assay: MIC of antibiotics with or without paenipeptin analogues (potentiation); format: cell-based; details: A. baumannii ATCC 19606
Text: (§1) Gram-negative bacteria, including Acinetobacter and Klebsiella, are intrinsically resistant to the hydrophobic antibiotic rifampicin.

[5] = test system: Klebsiella pneumoniae ATCC 13883; assay: as above; format: cell-based; details: K. pneumoniae ATCC 13883
Text: as §1

[6] = test system: A. baumannii FDA-CDC AR 0063; details: A. baumannii AR 0063
[7] = test system: human kidney cell line (HEK 293); assay: Cytotoxicity, MTT assay; format: cell-based; details: HEK 293; 105 μg/ml; 24 h
Protocol: (§2) Cytotoxicity of paenipeptin analogues was determined against a human kidney cell line (HEK 293) using MTT assays (Huang E, Yousef AE. 2014. Paenibacterin, a novel broad-spectrum lipopeptide antibiotic, neutralises endotoxins and promotes survival in a murine model of Pseudomonas aeruginosa-induced sepsis. Int J Antimicrob Agents 44: 74-77). Cell viability was measured at 24 h following the addition of lipopeptides at concentrations between 30-105 μg/ml. The viability of human embryonic kidney cells (HEK 293) decreased with the increase of paenipeptin concentration. The viability of HEK 293 cells in the presence of paenipeptin analogue 1 and 15 at 105 μg/ml was 61% and 67%, respectively (Table 10). The relatively low cytotoxicity of paenipeptin analogue 1 and 15 was correlated with their low hemolytic activity against red blood cells.

[8] = Cytotoxicity, MTT assay; format: cell-based, human; details: human, HEK 293 cells, HEK 293, 24 h, read-out: Viability
Protocol: as §2

[9] = test system: rabbit red blood cells; assay: Hemolytic activity; format: cell-based; details: for Hemolysis: relative to Triton X-100
In short: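 Washed defibrinated rabbit RBCs in PBS pH 7.2 incubated 30 min at 37 °C with paenipeptin analogues at 16–128 μg/mL final. Released hemoglobin read at 415 nm in the supernatant; % hemolysis relative to 0.1% Triton X-100.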

[10] = test system: K. pneumoniae FDA-CDC AR0097; assay: Time-kill kinetics in 95% human serum, alone and combined; format: cell-based, Klebsiella pneumoniae
Protocol: Bacterial viable counts were determined at 0, 2, 4, 6, and 24 h after antimicrobial treatment. Bacterial surviving counts at 24 h endpoints were subjected to analysis of variance (ANOVA) followed by Tukey's honest significant difference (HSD) tests using SPSS Statistics (version 24; SPSS, Inc., Chicago, Ill., USA).
To further test the therapeutic potential of paenipeptin analogues, the time-kill kinetics assays of paenipeptins alone or in combination with other antibiotics were performed in 95% human serum in vitro.

[11] = test system: K. pneumoniae FDA-CDC AR 0080; details: K. pneumoniae AR 0080
[12] = test system: K. pneumoniae FDA-CDC AR 0068; details: K. pneumoniae AR 0068
[13] = test system: K. pneumoniae FDA-CDC AR 0044; details: K. pneumoniae AR 0044
[14] = test system: Pseudomonas aeruginosa ATCC 27853; format: cell-based; details: P. aeruginosa ATCC 27853; TSB
Protocol: as §3, §4

[15] = test system: Acinetobacter baumannii ATCC 19606; format: cell-based; details: A. baumannii ATCC 19606; TSB
Protocol: as §3, §4

[16] = test system: Enterococcus faecium ATCC 19434; format: cell-based; details: E. faecium ATCC 19434; TSB
Protocol: as §3, §4

[17] = test system: Staphylococcus aureus ATCC 29213; format: cell-based; details: S. aureus ATCC 29213; TSB
[18] = test system: K. pneumoniae FDA-CDC AR 0034; details: K. pneumoniae AR 0034
[19] = test system: Escherichia coli ATCC 25922; format: cell-based; details: E. coli ATCC 25922; TSB

Compound: CC[C@H](C)[C@H](NC(=O)[C@H](CCN)NC(=O)OCc1ccccc1)C(=O)N[C@@H](CCN)C(=O)N[C@H](Cc1ccccc1)C(=O)N[C@@H](CC(C)C)C(=O)N[C@@H](CCN)C(=O)N[C@@H](C(=O)N[C@@H](CC(C)C)C(=O)N[C@@H](CO)C(N)=O)C(C)C [Analogue 15] (Cbz-[Dab]I[Dab][dF]L[Dab][dV]LS-NH2)
- MIC of clarithromycin at the presence of PMBN or paenipeptin analogue at 4 μg/ml [1]: 0.0078-0.0156 μg/ml
- MIC of rifampicin at the presence of PMBN or paenipeptin analogue at 4 μg/ml [1]: 0.0019-0.0039 μg/ml
- MIC alone ([1]; 10% FBS): 16 to 32 µg/mL
- MIC alone ([1]; No FBS): >32 µg/mL
- MIC [2]: >32 µg/mL
- MIC of clarithromycin at the presence of PMBN or paenipeptin analogue at 4 μg/ml [3]: 1-4 μg/ml
- MIC of rifampicin at the presence of PMBN or paenipeptin analogue at 4 μg/ml [3]: 0.0313-0.0625 μg/ml
- MIC alone ([3]; 10% FBS): 4 to 8 µg/mL
- MIC alone ([3]; No FBS): 8 to 16 µg/mL
- MIC of rifampicin at 2 μg/mL of paenipeptin analogue [4]: 0.0019-0.0039 μg/ml
- MIC of rifampicin at 2 μg/mL of paenipeptin analogue [5]: 0.0039 μg/ml
- MIC of rifampicin at 4 μg/mL of paenipeptin analogue [5]: 0.00195-0.0039 μg/ml
- Sensitization factor (rifampicin) ([5]; MIC without / with 4 μg/mL paenipeptin): 4,096-8,192
- MIC alone ([6]; 10% FBS): 2 µg/mL (≈ 1.78 µM)
- MIC alone ([6]; No FBS): 0.5 to 4 µg/mL
- Viability [7]: 67%
- viability at 24 h, 30 µg/mL ([8]; 30 μg/ml): 91.4 ± 4.09%
- viability at 24 h, 45 µg/mL ([8]; 45 μg/ml): 84.3 ± 8.12%
- viability at 24 h, 60 µg/mL ([8]; 60 μg/ml): 82 ± 4.54%
- viability at 24 h, 75 µg/mL ([8]; 75 μg/ml): 73.3 ± 5.37%
- viability at 24 h, 90 µg/mL ([8]; 90 μg/ml): 67.1 ± 10%
- viability at 24 h, 105 µg/mL ([8]; 105 μg/ml): 67.5 ± 9.66%
- Hemolysis ([9]; 16 μg/mL): 0.77 ± 0.15%
- Hemolysis ([9]; 32 μg/mL): 0.41 ± 0.67%
- Hemolysis ([9]; 64 μg/mL): 0.54 ± 0.70%
- hemolytic activity (in words) ([9]; 128 μg/mL): nonhemolytic
- Hemolysis ([9]; 128 μg/mL): 0.65 ± 0.29%
- log reduction, analogue 4 μg/ml in combination with rifampicin 4 μg/ml ([10]; 24 h): 4.6 log
- log inactivation, single agent at 4 μg/ml ([10]; within 24 h): didn't show bactericidal activity
- MIC of clarithromycin at the presence of PMBN or paenipeptin analogue at 4 μg/ml [11]: 0.0156 μg/ml
- MIC of rifampicin at the presence of PMBN or paenipeptin analogue at 4 μg/ml [11]: 0.0313 μg/ml
- MIC alone ([11]; 10% FBS): 32 µg/mL (≈ 28.5 µM)
- MIC alone ([11]; No FBS): 32 µg/mL (≈ 28.5 µM)
- MIC of clarithromycin at the presence of PMBN or paenipeptin analogue at 4 μg/ml [12]: >32 μg/ml
- MIC of rifampicin at the presence of PMBN or paenipeptin analogue at 4 μg/ml [12]: 0.0039-0.0078 μg/ml
- MIC alone ([12]; 10% FBS): >32 µg/mL
- MIC alone ([12]; No FBS): >32 µg/mL
- MIC of clarithromycin at the presence of PMBN or paenipeptin analogue at 4 μg/ml [13]: 0.0078-0.0156 μg/ml
- MIC of rifampicin at the presence of PMBN or paenipeptin analogue at 4 μg/ml [13]: ≤0.0019 μg/ml
- MIC alone ([13]; 10% FBS): 16 to 32 µg/mL
- MIC alone ([13]; No FBS): 32 µg/mL (≈ 28.5 µM)
- MIC [14]: 16 µg/mL (≈ 14.2 µM)
- MIC [15]: 16 µg/mL (≈ 14.2 µM)
- MIC [16]: >32 µg/mL
- MIC [17]: >32 µg/mL
- MIC of clarithromycin at the presence of PMBN or paenipeptin analogue at 4 μg/ml [18]: 0.125-0.5 μg/ml
- MIC of rifampicin at the presence of PMBN or paenipeptin analogue at 4 μg/ml [18]: ≤0.0019 μg/ml
- MIC alone ([18]; 10% FBS): >32 µg/mL
- MIC alone ([18]; No FBS): ≥32 µg/mL
- MIC [19]: 8 to 16 µg/mL
